Source: PubChem BioAssay (NCI)
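How tested: cells in 96-well plates exposed to compound for 48 hours at five concentrations. GI50 = concentration required for 50% inhibition of growth. TGI is the concentration that stops growth completely.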

Columns and labels:
Assay in all cases: NCI anticancer screen, dose series, 48 h
SN12C renal = tested on: SN12C renal
SK-OV-3 ovarian = tested on: SK-OV-3 ovarian
MDA-MB-231 breast = tested on: MDA-MB-231 breast
LOX IMVI melanoma = tested on: LOX IMVI melanoma
IGROV1 ovarian = tested on: IGROV1 ovarian
K-562 leukemia = tested on: K-562 leukemia
HL-60(TB) leukemia = tested on: HL-60(TB) leukemia
OVCAR-4 ovarian = tested on: OVCAR-4 ovarian
DU-145 prostate = tested on: DU-145 prostate
NCI-H23 lung = tested on: NCI-H23 lung
SK-MEL-2 melanoma = tested on: SK-MEL-2 melanoma
SW-620 colon = tested on: SW-620 colon
HS 578T breast = tested on: HS 578T breast
OVCAR-8 ovarian = tested on: OVCAR-8 ovarian
CAKI-1 renal = tested on: CAKI-1 renal
HOP-92 NSCLC = tested on: HOP-92 NSCLC
A549 NSCLC = tested on: A549 NSCLC
SR leukemia = tested on: SR leukemia
M14 melanoma = tested on: M14 melanoma
TK-10 renal = tested on: TK-10 renal
OVCAR-3 ovarian = tested on: OVCAR-3 ovarian
UACC-257 melanoma = tested on: UACC-257 melanoma
T-47D breast = tested on: T-47D breast
MCF7 breast = tested on: MCF7 breast
MDA-MB-435 = tested on: MDA-MB-435
RPMI-8226 leukemia = tested on: RPMI-8226 leukemia
HCC-2998 colon = tested on: HCC-2998 colon
SNB-19 CNS = tested on: SNB-19 CNS
RXF 393 renal = tested on: RXF 393 renal
UO-31 renal = tested on: UO-31 renal
HCT-15 colon = tested on: HCT-15 colon
SK-MEL-5 melanoma = tested on: SK-MEL-5 melanoma
A498 renal = tested on: A498 renal
NCI-H460 lung = tested on: NCI-H460 lung
COLO 205 colon = tested on: COLO 205 colon
SK-MEL-28 melanoma = tested on: SK-MEL-28 melanoma
786-0 renal = tested on: 786-0 renal
NCI/ADR-RES ovarian = tested on: NCI/ADR-RES ovarian
EKVX NSCLC = tested on: EKVX NSCLC
HCT-116 colon = tested on: HCT-116 colon
SF-539 CNS = tested on: SF-539 CNS
CCRF-CEM leukemia = tested on: CCRF-CEM leukemia
OVCAR-5 ovarian = tested on: OVCAR-5 ovarian
MOLT-4 leukemia = tested on: MOLT-4 leukemia
UACC-62 melanoma = tested on: UACC-62 melanoma
PC-3 prostate = tested on: PC-3 prostate
KM12 colon = tested on: KM12 colon
BT-549 breast = tested on: BT-549 breast
SF-295 CNS = tested on: SF-295 CNS
U251 CNS = tested on: U251 CNS
MALME-3M melanoma = tested on: MALME-3M melanoma
ACHN renal = tested on: ACHN renal
HT29 colon = tested on: HT29 colon
NCI-H226 lung = tested on: NCI-H226 lung
HOP-62 NSCLC = tested on: HOP-62 NSCLC
SF-268 CNS = tested on: SF-268 CNS
NCI-H522 lung = tested on: NCI-H522 lung

Cc1c2ncccc2nc2[nH]c3ccc(OCCN(C)C)cc3c12
GI50 (SN12C renal): 2500 nM | TGI (SN12C renal): 28.5 µM | GI50 (SK-OV-3 ovarian): 2300 nM | TGI (SK-OV-3 ovarian): 17.5 µM | GI50 (MDA-MB-231 breast): 2500 nM | TGI (MDA-MB-231 breast): 16 µM | GI50 (LOX IMVI melanoma): 1540 nM | TGI (LOX IMVI melanoma): 5.78 µM | GI50 (IGROV1 ovarian): 2130 nM | TGI (IGROV1 ovarian): 16.5 µM | GI50 (K-562 leukemia): 802 nM | TGI (K-562 leukemia): 14.6 µM | GI50 (HL-60(TB) leukemia): 3.53 µM | TGI (HL-60(TB) leukemia): 16.5 µM | GI50 (OVCAR-4 ovarian): 1840 nM | TGI (OVCAR-4 ovarian): 8.75 µM | GI50 (DU-145 prostate): 1900 nM | TGI (DU-145 prostate): 11.6 µM | GI50 (NCI-H23 lung): 2540 nM | TGI (NCI-H23 lung): 21 µM | GI50 (SK-MEL-2 melanoma): 3.03 µM | TGI (SK-MEL-2 melanoma): 15.1 µM | GI50 (SW-620 colon): 940 nM | TGI (SW-620 colon): 13.7 µM | GI50 (HS 578T breast): 3.77 µM | TGI (HS 578T breast): 33.7 µM | GI50 (OVCAR-8 ovarian): 1490 nM | TGI (OVCAR-8 ovarian): 16.5 µM | GI50 (CAKI-1 renal): 3.61 µM | TGI (CAKI-1 renal): 21.3 µM | GI50 (HOP-92 NSCLC): 1990 nM | TGI (HOP-92 NSCLC): 9.59 µM | GI50 (A549 NSCLC): 1870 nM | TGI (A549 NSCLC): 10.3 µM | GI50 (SR leukemia): 734 nM | TGI (SR leukemia): 7.95 µM | GI50 (M14 melanoma): 3.01 µM | TGI (M14 melanoma): 15.6 µM | GI50 (TK-10 renal): 2420 nM | TGI (TK-10 renal): 9.55 µM | GI50 (OVCAR-3 ovarian): 3.62 µM | TGI (OVCAR-3 ovarian): 19.7 µM | GI50 (UACC-257 melanoma): 10.4 µM | TGI (UACC-257 melanoma): 28.5 µM | GI50 (T-47D breast): 2800 nM | TGI (T-47D breast): > 100 µM | GI50 (MCF7 breast): 305 nM | TGI (MCF7 breast): 6.04 µM | GI50 (MDA-MB-435): 3.12 µM | TGI (MDA-MB-435): 15.7 µM | GI50 (RPMI-8226 leukemia): 2130 nM | TGI (RPMI-8226 leukemia): 5.91 µM | GI50 (HCC-2998 colon): 1640 nM | TGI (HCC-2998 colon): 14.6 µM | GI50 (SNB-19 CNS): 2800 nM | TGI (SNB-19 CNS): 26.7 µM | GI50 (RXF 393 renal): 2890 nM | TGI (RXF 393 renal): 9.92 µM | GI50 (UO-31 renal): 1840 nM | TGI (UO-31 renal): 11.5 µM | GI50 (HCT-15 colon): 1330 nM | TGI (HCT-15 colon): 16.3 µM | GI50 (SK-MEL-5 melanoma): 9.77 µM | TGI (SK-MEL-5 melanoma): 21.9 µM | GI50 (A498 renal): 5.18 µM | TGI (A498 renal): 20 µM | GI50 (NCI-H460 lung): 1930 nM | TGI (NCI-H460 lung): 11 µM | GI50 (COLO 205 colon): 1500 nM | TGI (COLO 205 colon): 7.94 µM | GI50 (SK-MEL-28 melanoma): 4.4 µM | TGI (SK-MEL-28 melanoma): 19.1 µM | GI50 (786-0 renal): 2810 nM | TGI (786-0 renal): 16.1 µM | GI50 (NCI/ADR-RES ovarian): 1100 nM | TGI (NCI/ADR-RES ovarian): 17.4 µM | GI50 (EKVX NSCLC): 2900 nM | TGI (EKVX NSCLC): 21.2 µM | GI50 (HCT-116 colon): 552 nM | TGI (HCT-116 colon): 12.3 µM | GI50 (SF-539 CNS): 2580 nM | TGI (SF-539 CNS): 13.9 µM | GI50 (CCRF-CEM leukemia): 2100 nM | TGI (CCRF-CEM leukemia): 20.9 µM | GI50 (OVCAR-5 ovarian): 2810 nM | TGI (OVCAR-5 ovarian): 19.2 µM | GI50 (MOLT-4 leukemia): 600 nM | TGI (MOLT-4 leukemia): 12.5 µM | GI50 (UACC-62 melanoma): 14.3 µM | TGI (UACC-62 melanoma): 39.3 µM | GI50 (PC-3 prostate): 1860 nM | TGI (PC-3 prostate): 10.9 µM | GI50 (KM12 colon): 1930 nM | TGI (KM12 colon): 13.6 µM | GI50 (BT-549 breast): 7.46 µM | TGI (BT-549 breast): 29.7 µM | GI50 (SF-295 CNS): 1590 nM | TGI (SF-295 CNS): 13 µM | GI50 (U251 CNS): 2680 nM | TGI (U251 CNS): 17.3 µM | GI50 (MALME-3M melanoma): 2420 nM | TGI (MALME-3M melanoma): 13.5 µM | GI50 (ACHN renal): 750 nM | TGI (ACHN renal): 7.95 µM | GI50 (HT29 colon): 961 nM | TGI (HT29 colon): 6.05 µM | GI50 (NCI-H226 lung): 5.05 µM | TGI (NCI-H226 lung): 21.5 µM | GI50 (HOP-62 NSCLC): 1730 nM | TGI (HOP-62 NSCLC): 13.7 µM | GI50 (SF-268 CNS): 2160 nM | TGI (SF-268 CNS): 15.4 µM | GI50 (NCI-H522 lung): 2410 nM | TGI (NCI-H522 lung): 15.9 µM
